What follows are compounds tested against T1, Serine/threonine-protein kinase/endoribonuclease IRE1 (Homo sapiens, UniProt O75460) (assay: Inhibition of IRE1alpha RNase activity (unknown origin) using XBP1 as substrate preincubated for 1 hr followed by thapsigargin stimulation for 5 hrs by One-Glo luciferase reagent based luminescence assay).
T1 sequence (O75460 whole entry): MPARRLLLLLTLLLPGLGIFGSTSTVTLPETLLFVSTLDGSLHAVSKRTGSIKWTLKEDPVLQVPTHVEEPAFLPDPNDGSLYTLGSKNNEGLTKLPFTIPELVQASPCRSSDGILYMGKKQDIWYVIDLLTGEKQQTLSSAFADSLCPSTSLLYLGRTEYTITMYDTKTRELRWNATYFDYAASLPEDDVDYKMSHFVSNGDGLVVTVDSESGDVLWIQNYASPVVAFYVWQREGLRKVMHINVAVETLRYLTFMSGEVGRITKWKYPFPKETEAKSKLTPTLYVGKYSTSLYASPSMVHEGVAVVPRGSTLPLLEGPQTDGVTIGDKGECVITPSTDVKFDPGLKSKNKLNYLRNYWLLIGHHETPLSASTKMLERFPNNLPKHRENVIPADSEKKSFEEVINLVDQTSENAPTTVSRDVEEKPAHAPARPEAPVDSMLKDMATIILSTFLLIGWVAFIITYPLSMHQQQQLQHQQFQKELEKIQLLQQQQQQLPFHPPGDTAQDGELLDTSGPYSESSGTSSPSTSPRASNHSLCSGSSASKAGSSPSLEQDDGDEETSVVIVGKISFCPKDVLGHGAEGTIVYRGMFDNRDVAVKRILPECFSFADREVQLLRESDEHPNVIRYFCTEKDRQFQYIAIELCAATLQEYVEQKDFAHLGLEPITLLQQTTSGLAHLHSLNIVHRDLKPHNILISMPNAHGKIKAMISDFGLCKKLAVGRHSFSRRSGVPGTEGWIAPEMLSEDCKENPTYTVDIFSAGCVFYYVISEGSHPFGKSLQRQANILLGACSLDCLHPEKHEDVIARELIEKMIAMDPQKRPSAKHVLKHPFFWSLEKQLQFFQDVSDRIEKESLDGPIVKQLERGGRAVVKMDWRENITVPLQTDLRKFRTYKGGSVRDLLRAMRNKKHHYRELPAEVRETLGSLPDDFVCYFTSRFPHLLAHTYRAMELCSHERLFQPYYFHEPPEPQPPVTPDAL

SMILES | IC50 [nM]
Cc1ccc2c(NS(=O)(=O)c3ccccc3Cl)cccc2c1Oc1ncccc1-c1ccnc(NC2CCC(=O)NC2)n1 (centres undefined) | 9000
Cc1ccc2c(NS(=O)(=O)C3CCCC3)cccc2c1Oc1ncccc1-c1ccnc(N[C@H]2CCCNC2)n1 | 200
Cc1ccc2c(Oc3ncccc3-c3ccnc(N[C@H]4CCCNC4)n3)c(C)ccc2c1NS(=O)(=O)CCC(F)(F)F | 42
Cc1cc(NS(=O)(=O)Cc2ccccc2)c2ccccc2c1Oc1ncccc1-c1ccnc(N[C@H]2CCCNC2)n1 | 31
Cc1ccc2c(NS(=O)(=O)CCC3CC3)cccc2c1Oc1ncccc1-c1ccnc(N[C@H]2CCCNC2)n1 | 300
Cc1ccc2c(NS(=O)(=O)CC3CCCCC3)cccc2c1Oc1ncccc1-c1ccnc(N[C@H]2CCCNC2)n1 | 1300
Cc1ccc(CNC(=O)N2CCC[C@]3(CCN(Cc4ccc(Cl)c(Cl)c4)C3)C2)cc1 | 5900
Cc1ccc2c(NS(=O)(=O)c3ccccc3Cl)cccc2c1Oc1ncccc1-c1ccnc(N[C@H]2CCCOC2)n1 | 26000

The compounds below were run against T1, Serine/threonine-protein kinase/endoribonuclease IRE1 (assay: Inhibition of IRE1alpha RNase activity (Q470 to L977 residues) (unknown origin) expressed in Sf9 cells using mini-XBP-1 stem-loop RNA as substrate measured every 2 mins interval for 50 mins by FRET assay).

SMILES | IC50 [nM]
Cc1ccc2c(NS(=O)(=O)c3ccccc3Cl)cccc2c1Oc1ncccc1-c1ccnc(NC2CCC(=O)NC2)n1 (centres undefined) | 2100
Cc1ccc2c(NS(=O)(=O)C3CCCC3)cccc2c1Oc1ncccc1-c1ccnc(N[C@H]2CCCNC2)n1 | 13
Cc1ccc2c(Oc3ncccc3-c3ccnc(N[C@H]4CCCNC4)n3)c(C)ccc2c1NS(=O)(=O)CCC(F)(F)F | 3.3
Cc1cc(NS(=O)(=O)Cc2ccccc2)c2ccccc2c1Oc1ncccc1-c1ccnc(N[C@H]2CCCNC2)n1 | 5.4
Cc1ccc2c(NS(=O)(=O)CCC3CC3)cccc2c1Oc1ncccc1-c1ccnc(N[C@H]2CCCNC2)n1 | 19
Cc1ccc2c(NS(=O)(=O)CC3CCCCC3)cccc2c1Oc1ncccc1-c1ccnc(N[C@H]2CCCNC2)n1 | 24
Cc1ccc(CNC(=O)N2CCC[C@]3(CCN(Cc4ccc(Cl)c(Cl)c4)C3)C2)cc1 | 46
Cc1ccc2c(NS(=O)(=O)c3ccccc3Cl)cccc2c1Oc1ncccc1-c1ccnc(N[C@H]2CCCOC2)n1 | > 10000

These compounds were tested against T1, Serine/threonine-protein kinase/endoribonuclease IRE1 (assay: Inhibition of His-tagged IRE1alpha (G547 to L977 residues) (unknown origin) expressed in Sf9 cells preincubated with anti-His Europium labeled antibody for 1 hr prior to compound addition followed by tracer 236 addition and measured after 1 hr by TR-FRET assay).

SMILES | IC50 [nM]
Cc1ccc2c(NS(=O)(=O)c3ccccc3Cl)cccc2c1Oc1ncccc1-c1ccnc(NC2CCC(=O)NC2)n1 (centres undefined) | 65
Cc1ccc2c(NS(=O)(=O)C3CCCC3)cccc2c1Oc1ncccc1-c1ccnc(N[C@H]2CCCNC2)n1 | 3.3
Cc1ccc2c(Oc3ncccc3-c3ccnc(N[C@H]4CCCNC4)n3)c(C)ccc2c1NS(=O)(=O)CCC(F)(F)F | 0.66
Cc1cc(NS(=O)(=O)Cc2ccccc2)c2ccccc2c1Oc1ncccc1-c1ccnc(N[C@H]2CCCNC2)n1 | 0.38
Cc1ccc2c(NS(=O)(=O)CCC3CC3)cccc2c1Oc1ncccc1-c1ccnc(N[C@H]2CCCNC2)n1 | 1.8
Cc1ccc2c(NS(=O)(=O)CC3CCCCC3)cccc2c1Oc1ncccc1-c1ccnc(N[C@H]2CCCNC2)n1 | 2.1
Cc1ccc(CNC(=O)N2CCC[C@]3(CCN(Cc4ccc(Cl)c(Cl)c4)C3)C2)cc1 | 660
Cc1ccc2c(NS(=O)(=O)c3ccccc3Cl)cccc2c1Oc1ncccc1-c1ccnc(N[C@H]2CCCOC2)n1 | 42
